According to the supplement of paper PMC6045584:
± gives the standard deviation of the averaged measurements.

Key:
[1] = compound: CCN(CC)CCCCNc1ncc2cc(-c3cc(OC)cc(OC)c3)c(NC(=O)NC(C)(C)C)nc2n1; assay: surviving fraction relative to DMSO-only wells; higher = less growth inhibition; settings: exposure time: 5 days
Summary of the method: (§1)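 Surviving fraction was calculated by normalising CellTiter-Glo luminescence to the median of DMSO-only wells. Tumour cell lines in log phase were seeded in 384-well plates at 250–500 cells per well, and 24 hours later were exposed continuously for five days to inhibitors at 0.5, 1, 5, 10, 50, 100, 500 and 1000 nM.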

[2] = compound: COc1cccc2c1C(=O)c1c(O)c3c(c(O)c1C2=O)C[C@@](O)(C(=O)CO)C[C@@H]3O[C@H]1C[C@H](N)[C@H](O)[C@H](C)O1 [DOXORUBICIN]; assay: as above; settings: exposure time: 5 days
Summary of the method: as §1

Row | Test System | surviving fraction ([1]; 0.5 nM) | surviving fraction ([1]; 1 nM) | surviving fraction ([1]; 5 nM) | surviving fraction ([1]; 10 nM) | surviving fraction ([1]; 50 nM) | surviving fraction ([1]; 100 nM) | surviving fraction ([1]; 500 nM) | surviving fraction ([1]; 1000 nM) | surviving fraction ([2]; 0.5 nM) | surviving fraction ([2]; 1 nM) | surviving fraction ([2]; 5 nM) | surviving fraction ([2]; 10 nM) | surviving fraction ([2]; 50 nM) | surviving fraction ([2]; 100 nM) | surviving fraction ([2]; 500 nM) | surviving fraction ([2]; 1000 nM)
1 | HCC1395 BREAST | 0.991 ± 0.2 | 0.785 ± 0.093 | 0.968 ± 0.14 | 0.9 ± 0.021 | 0.872 ± 0.14 | 0.867 ± 0.074 | 0.826 ± 0.17 | 0.818 ± 0.18 | 0.926 ± 0.18 | 1.11 ± 0.18 | 1.03 ± 0.036 | 1.19 ± 0.11 | 0.928 ± 0.11 | 1.07 ± 0.08 | 0.693 ± 0.085 | 0.808 ± 0.091
2 | HCC1806 BREAST | 1.11 ± 0.012 | 0.967 ± 0.1 | 1.11 ± 0.065 | 1.14 ± 0.033 | 1.11 ± 0.089 | 1.07 ± 0.043 | 1.06 ± 0.13 | 1.1 ± 0.095 | 0.963 ± 0.033 | 1.01 ± 0.076 | 0.75 ± 0.068 | 0.369 ± 0.039 | 0.102 ± 0.013 | 0.0793 ± 0.005 | 0.0243 ± 0.0011 | 0.0257 ± 0.0011
3 | HCC1954 BREAST | 1.01 ± 0.021 | 1.04 ± 0.04 | 0.945 ± 0.058 | 1.11 ± 0.051 | 1.08 ± 0.041 | 1.04 ± 0.2 | 0.829 ± 0.072 | 0.951 ± 0.11 | 1.03 ± 0.19 | 0.955 ± 0.18 | 0.829 ± 0.015 | 0.772 ± 0.058 | 0.465 ± 0.067 | 0.169 ± 0.0085 | 0.0355 ± 0.00071 | 0.0328 ± 0.00035
4 | HCT15 LARGE INTESTINE | 0.875 ± 0.033 | 0.981 ± 0.02 | 0.971 ± 0.025 | 1.01 ± 0.012 | 0.963 ± 0.027 | 0.9977 ± 0.0093 | 0.987 ± 0.011 | 1.06 ± 0.047 | 1.01 ± 0.016 | 0.986 ± 0.044 | 1.01 ± 0.045 | 0.987 ± 0.02 | 0.486 ± 0.044 | 0.18 ± 0.018 | 0.0863 ± 0.005 | 0.066 ± 0.0027
5 | HELA CERVIX | 0.979 ± 0.028 | 0.994 ± 0.034 | 0.971 ± 0.042 | 0.984 ± 0.019 | 1.03 ± 0.047 | 1.07 ± 0.065 | 1.06 ± 0.023 | 1.13 ± 0.075 | 0.998 ± 0.055 | 1.03 ± 0.022 | 0.897 ± 0.029 | 0.595 ± 0.031 | 0.316 ± 0.007 | 0.309 ± 0.022 | 0.0252 ± 0.00076 | 0.0252 ± 0.0013
6 | HOS BONE | 0.99 ± 0.019 | 1.01 ± 0.013 | 0.9947 ± 0.0083 | 1.03 ± 0.022 | 0.9823 ± 0.005 | 1.01 ± 0.015 | 0.9423 ± 0.0071 | 0.927 ± 0.025 | 1.009 ± 0.0046 | 1 ± 0.028 | 0.686 ± 0.0056 | 0.352 ± 0.1 | 0.087 ± 0.0053 | 0.043 ± 0.007 | 0.024 | 0.0283 ± 0.0015
7 | HOSMNG BONE | 1.02 ± 0.09 | 1 ± 0.072 | 0.994 ± 0.04 | 1.01 ± 0.062 | 0.996 ± 0.062 | 1.02 ± 0.11 | 1.02 ± 0.041 | 1.02 ± 0.065 | 0.976 ± 0.05 | 1.02 ± 0.032 | 0.983 ± 0.083 | 0.98 ± 0.07 | 0.549 ± 0.051 | 0.506 ± 0.025 | 0.165 ± 0.056 | 0.153 ± 0.037
8 | HSSYII SYNOVIAL | 0.799 ± 0.027 | 0.9 ± 0.044 | 0.886 ± 0.029 | 0.784 ± 0.05 | 0.475 ± 0.013 | 0.402 ± 0.007 | 0.274 ± 0.005 | 0.26 ± 0.0082 | 0.901 ± 0.025 | 0.759 ± 0.018 | 0.381 ± 0.02 | 0.157 ± 0.015 | 0.0632 ± 0.0042 | 0.0312 ± 0.002 | 0.0185 ± 0.0022 | 0.0217 ± 0.0019
9 | HT1080 SOFT TISSUE | 1.036 ± 0.009 | 1.03 ± 0.024 | 1.02 ± 0.046 | 1 ± 0.025 | 1.03 ± 0.021 | 1.01 ± 0.021 | 1.03 ± 0.059 | 1.07 ± 0.029 | 0.992 ± 0.01 | 0.95 ± 0.041 | 0.553 ± 0.0044 | 0.333 ± 0.037 | 0.265 ± 0.0078 | 0.222 ± 0.018 | 0.0267 ± 0.00058 | 0.0437 ± 0.0045
10 | HU09 BONE | 1 ± 0.045 | 1.01 ± 0.047 | 0.928 ± 0.028 | 1.02 ± 0.12 | 0.942 ± 0.061 | 0.921 ± 0.072 | 0.72 ± 0.011 | 0.715 ± 0.065 | 0.924 ± 0.04 | 0.964 ± 0.11 | 0.861 ± 0.13 | 0.539 ± 0.1 | 0.0467 ± 0.0046 | 0.0277 ± 0.005 | 0.0227 ± 0.0023 | 0.0247 ± 0.0021
11 | HUO3N1 BONE | 0.996 ± 0.074 | 0.993 ± 0.047 | 1.04 ± 0.052 | 0.999 ± 0.043 | 0.9503 ± 0.0051 | 0.906 ± 0.055 | 0.727 ± 0.04 | 0.69 ± 0.013 | 0.977 ± 0.053 | 1.02 ± 0.021 | 0.953 ± 0.052 | 0.857 ± 0.049 | 0.47 ± 0.016 | 0.311 ± 0.025 | 0.08133 ± 0.00058 | 0.0547 ± 0.00058
12 | JIMT1 BREAST | 0.964 ± 0.028 | 0.951 ± 0.04 | 0.967 ± 0.054 | 1.01 ± 0.037 | 1.02 ± 0.011 | 1.03 ± 0.042 | 0.989 ± 0.031 | 1.02 ± 0.025 | 0.943 ± 0.0048 | 0.963 ± 0.025 | 0.994 ± 0.04 | 0.901 ± 0.036 | 0.56 ± 0.055 | 0.48 ± 0.017 | 0.225 ± 0.012 | 0.087 ± 0.019
13 | JURKAT HAEMATOPOIETIC AND LYMPHOID TISSUE | 1.03 ± 0.042 | 1.08 ± 0.015 | 1.04 ± 0.022 | 1.055 ± 0.0052 | 1 ± 0.039 | 1.05 ± 0.02 | 1.02 ± 0.021 | 1.07 ± 0.021 | 1.05 ± 0.023 | 1.049 ± 0.0078 | 0.61 ± 0.035 | 0.129 ± 0.004 | 0.0323 ± 0.00058 | 0.0293 ± 0.00058 | 0.027 | 0.0297 ± 0.00058
14 | KPD BONE | 0.978 ± 0.07 | 1.02 ± 0.033 | 1 ± 0.049 | 1.01 ± 0.12 | 1.02 ± 0.039 | 0.97 ± 0.058 | 0.925 ± 0.025 | 0.884 ± 0.058 | 1.06 ± 0.057 | 0.963 ± 0.056 | 0.897 ± 0.075 | 0.909 ± 0.05 | 0.242 ± 0.048 | 0.116 ± 0.011 | 0.0297 ± 0.0031 | 0.0317 ± 0.0015
15 | LM7 BONE | 0.989 ± 0.039 | 0.966 ± 0.075 | 1.08 ± 0.13 | 1.07 ± 0.069 | 1.01 ± 0.043 | 1.13 ± 0.24 | 0.869 ± 0.075 | 0.739 ± 0.11 | 0.95 ± 0.033 | 1.05 ± 0.073 | 0.902 ± 0.051 | 0.818 ± 0.014 | 0.245 ± 0.016 | 0.229 ± 0.018 | 0.0483 ± 0.0038 | 0.0483 ± 0.0065
16 | LNCAP PROSTATE | 0.864 ± 0.066 | 0.878 ± 0.1 | 0.7647 ± 0.0046 | 0.922 ± 0.16 | 0.898 ± 0.11 | 0.934 ± 0.11 | 0.933 ± 0.11 | 1.03 ± 0.026 | 0.973 ± 0.018 | 0.863 ± 0.076 | 0.483 ± 0.075 | 0.33 ± 0.029 | 0.124 ± 0.013 | 0.0727 ± 0.01 | 0.024 ± 0.0017 | 0.0247 ± 0.0011
17 | MCF7 BREAST | 0.884 ± 0.024 | 0.868 ± 0.063 | 0.864 ± 0.03 | 0.877 ± 0.068 | 0.878 ± 0.04 | 0.861 ± 0.038 | 0.878 ± 0.042 | 0.908 ± 0.069 | 0.857 ± 0.038 | 0.868 ± 0.042 | 0.859 ± 0.053 | 0.7804 ± 0.0075 | 0.589 ± 0.032 | 0.469 ± 0.0095 | 0.0898 ± 0.0037 | 0.0774 ± 0.008
18 | MDAMB134 BREAST | 1 ± 0.079 | 0.807 ± 0.069 | 0.863 ± 0.03 | 0.977 ± 0.23 | 0.872 ± 0.073 | 0.902 ± 0.069 | 0.829 ± 0.064 | 0.873 ± 0.05 | 0.865 ± 0.0028 | 0.835 ± 0.098 | 1.03 ± 0.021 | 0.9 ± 0.098 | 0.734 ± 0.023 | 0.693 ± 0.085 | 0.106 ± 0.019 | 0.0295 ± 0.0035
19 | MDAMB157 BREAST | 0.85 ± 0.13 | 0.935 ± 0.05 | 0.898 ± 0.031 | 0.993 ± 0.026 | 0.856 ± 0.03 | 0.68 ± 0.045 | 0.467 ± 0.033 | 0.515 ± 0.0087 | 0.918 ± 0.025 | 0.869 ± 0.053 | 0.498 ± 0.058 | 0.213 ± 0.02 | 0.375 ± 0.042 | 0.214 ± 0.014 | 0.053 ± 0.0027 | 0.0307 ± 0.0046
20 | MDAMB231 BREAST | 0.974 ± 0.03 | 0.975 ± 0.026 | 0.9813 ± 0.0094 | 1.01 ± 0.02 | 0.995 ± 0.026 | 1.01 ± 0.034 | 1.01 ± 0.035 | 0.983 ± 0.022 | 0.979 ± 0.029 | 0.992 ± 0.037 | 0.946 ± 0.024 | 0.817 ± 0.026 | 0.53 ± 0.014 | 0.474 ± 0.011 | 0.125 ± 0.0043 | 0.0638 ± 0.0041
21 | MDAMB361 BREAST | 0.945 ± 0.025 | 0.917 ± 0.056 | 0.855 ± 0.092 | 0.839 ± 0.051 | 0.955 ± 0.097 | 0.846 ± 0.034 | 0.937 ± 0.065 | 0.859 ± 0.025 | 0.794 ± 0.089 | 0.997 ± 0.12 | 0.906 ± 0.013 | 0.856 ± 0.074 | 0.746 ± 0.038 | 0.831 ± 0.1 | 0.387 ± 0.034 | 0.0543 ± 0.013
